Each structure is given as a SMILES string.

T1 sequence (Q9BUB5 1-424 isoform Q9BUB5-2 T344D): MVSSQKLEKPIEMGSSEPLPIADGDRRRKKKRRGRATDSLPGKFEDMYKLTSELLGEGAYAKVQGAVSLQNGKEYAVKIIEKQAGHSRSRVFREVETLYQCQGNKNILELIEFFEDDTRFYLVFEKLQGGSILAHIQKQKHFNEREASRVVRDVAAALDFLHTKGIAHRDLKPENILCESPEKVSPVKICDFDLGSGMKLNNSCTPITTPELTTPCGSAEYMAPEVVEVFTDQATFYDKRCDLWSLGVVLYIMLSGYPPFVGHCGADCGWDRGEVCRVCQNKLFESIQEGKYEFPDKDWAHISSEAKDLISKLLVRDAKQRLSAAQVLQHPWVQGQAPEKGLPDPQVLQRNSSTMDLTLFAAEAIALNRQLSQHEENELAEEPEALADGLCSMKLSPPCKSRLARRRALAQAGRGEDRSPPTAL

This experiment concerns the target T1, human full-length MKNK1 (Homo sapiens, UniProt Q9BUB5, T385D).
T1 construct: GST (N); purchased Carna Biosciences 02-145; host or cells: insect cells (baculovirus expression system)
The experiment can be described thus: MKNK1 kinase high ATP assay (TR-FRET). The experiment is classed as biochemical. To be noted: 2 mM ATP, after preincubation with MKNK1; read-out: MKNK1 IC50 (MKNK1 high ATP). The method in brief: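 Compound was preincubated 15 min at 22° C. with MKNK1 in 50 mM HEPES pH 7.5, 5 mM MgCl2, 1.0 mM DTT, then the reaction ran 30 min at 22° C. with 2 mM ATP and 0.06 μM biotinylated peptide (final).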
As a reminder, the IC50 is the concentration needed to halve the response being measured. For the molecule `CC(O)CN(C)C(=O)C1CCc2c(sc3ncnc(Nc4ccc5[nH]ncc5c4)c23)C1` (racemic) [Example 122, (RS)-N-(2-hydroxypropyl)-4-(1H-indazol-5-ylamino)-N-methyl-5,6,7,8-tetrahydro[1]benzothieno[2,3-d]pyrimidine-7-carboxamide], the 50% inhibitory concentration (IC50) came out at 0.0112 µM.
The same measure for `O=C(NC1CCOCC1)C1CCc2c(sc3ncnc(Nc4ccc5[nH]ncc5c4)c23)C1` (racemic) [Example 123, (RS)-4-(1H-indazol-5-ylamino)-N-(tetrahydro-2H-pyran-4-yl)-5,6,7,8-tetrahydro[1]benzothieno[2,3-d]pyrimidine-7-carboxamide]: 0.0113 µM; for `CC(=O)N[C@@H]1CCN(C(=O)C2CCc3c(sc4ncnc(Nc5ccc6[nH]ncc6c5)c34)C2)C1` (mixture of isomers) [Example 124, (RS)-N-(1-{[4-(1H-indazol-5-ylamino)-5,6,7,8-tetrahydro[1]benzothieno[2,3-d]pyrimidin-7-yl]carbonyl}pyrrolidin-3-yl)acetamide]: 0.008 µM; for `O=C(NCCN1CCNC1=O)C1CCc2c(sc3ncnc(Nc4ccc5[nH]ncc5c4)c23)C1` (racemic) [Example 125, (RS)-4-(1H-indazol-5-ylamino)-N-[2-(2-oxoimidazolidin-1-yl)ethyl]-5,6,7,8-tetrahydro[1]benzothieno[2,3-d]pyrimidine-7-carboxamide]: 0.0105 µM.
`CN(C)C(=O)N1CCN(C(=O)C2CCc3c(sc4ncnc(Nc5ccc6[nH]ncc6c5)c34)C2)CC1` (racemic) [Example 126, (RS)-4-{[4-(1H-indazol-5-ylamino)-5,6,7,8-tetrahydro[1]benzothieno[2,3-d]pyrimidin-7-yl]carbonyl}-N,N-dimethylpiperazine-1-carboxamide]: the IC50 came out at 0.0148 µM.
For the molecule `O=C(C1CCc2c(sc3ncnc(Nc4ccc5[nH]ncc5c4)c23)C1)N1CCC(c2ccccc2)CC1` (racemic) [Example 127, (RS)-[4-(1H-indazol-5-ylamino)-5,6,7,8-tetrahydro[1]benzothieno[2,3-d]pyrimidin-7-yl](4-phenylpiperidin-1-yl)methanone], the IC50 came to 0.0107 µM.
Next, `O=C(Nc1ccnnc1)C1CCc2c(sc3ncnc(Nc4ccc5[nH]ncc5c4)c23)C1` (racemic) [Example 128, (RS)-4-(1H-indazol-5-ylamino)-N-(pyridazin-4-yl)-5,6,7,8-tetrahydro[1]benzothieno[2,3-d]pyrimidine-7-carboxamide]: 0.015 µM; `CN(C)CCN1CCN(C(=O)C2CCc3c(sc4ncnc(Nc5ccc6[nH]ncc6c5)c34)C2)CC1` (racemic) [Example 129, (RS)-{4-[2-(dimethylamino)ethyl]piperazin-1-yl}[4-(1H-indazol-5-ylamino)-5,6,7,8-tetrahydro[1]benzothieno[2,3-d]pyrimidin-7-yl]methanone]: 0.0077 µM; `COCCN(C)C(=O)C1CCc2c(sc3ncnc(Nc4ccc5[nH]ncc5c4)c23)C1` (racemic) [Example 130, (RS)-4-(1H-indazol-5-ylamino)-N-(2-methoxyethyl)-N-methyl-5,6,7,8-tetrahydro[1]benzothieno[2,3-d]pyrimidine-7-carboxamide]: 0.0095 µM.
`O=C(C1CCc2c(sc3ncnc(Nc4ccc5[nH]ncc5c4)c23)C1)N1CCN(C2CCCC2)CC1` (racemic) [Example 131, (RS)-(4-cyclopentylpiperazin-1-yl)[4-(1H-indazol-5-ylamino)-5,6,7,8-tetrahydro[1]benzothieno[2,3-d]pyrimidin-7-yl]methanone]: the IC50 stood at 0.0135 µM.
As for `O=C(C1CCc2c(sc3ncnc(Nc4ccc5[nH]ncc5c4)c23)C1)N1CCC(CO)CC1` (racemic) [Example 132, (RS)-[4-(hydroxymethyl)piperidin-1-yl][4-(1H-indazol-5-ylamino)-5,6,7,8-tetrahydro[1]benzothieno[2,3-d]pyrimidin-7-yl]methanone], the 50% inhibitory concentration (IC50) turned out to be 0.0103 µM.
For `COCCN1CCN(C(=O)C2CCc3c(sc4ncnc(Nc5ccc6[nH]ncc6c5)c34)C2)CC1` (racemic) [Example 133, (RS)-[4-(1H-indazol-5-ylamino)-5,6,7,8-tetrahydro[1]benzothieno[2,3-d]pyrimidin-7-yl][4-(2-methoxyethyl)piperazin-1-yl]methanone], the IC50 came to 0.0214 µM.
Next, `O=C(C1CCc2c(sc3ncnc(Nc4ccc5[nH]ncc5c4)c23)C1)N1CC[C@@H](O)C1` (mixture of isomers) [Example 134, (RS)-(3-hydroxypyrrolidin-1-yl)[4-(1H-indazol-5-ylamino)-5,6,7,8-tetrahydro[1]benzothieno[2,3-d]pyrimidin-7-yl]methanone]: 0.0127 µM; `Cn1nccc1CNC(=O)C1CCc2c(sc3ncnc(Nc4ccc5[nH]ncc5c4)c23)C1` (racemic) [Example 136, (RS)-4-(1H-indazol-5-ylamino)-N-[(1-methyl-1H-pyrazol-5-yl)methyl]-5,6,7,8-tetrahydro[1]benzothieno[2,3-d]pyrimidine-7-carboxamide]: 0.0076 µM; `CN(Cc1ccn(C)n1)C(=O)C1CCc2c(sc3ncnc(Nc4ccc5[nH]ncc5c4)c23)C1` (racemic) [Example 137, (RS)-4-(1H-indazol-5-ylamino)-N-methyl-N-[(1-methyl-1H-pyrazol-3-yl)methyl]-5,6,7,8-tetrahydro[1]benzothieno[2,3-d]pyrimidine-7-carboxamide]: 0.0156 µM.
The same measure for `CN(Cc1ccnn1C)C(=O)C1CCc2c(sc3ncnc(Nc4ccc5[nH]ncc5c4)c23)C1` (racemic) [Example 138, (RS)-4-(1H-indazol-5-ylamino)-N-methyl-N-[(1-methyl-1H-pyrazol-5-yl)methyl]-5,6,7,8-tetrahydro[1]benzothieno[2,3-d]pyrimidine-7-carboxamide]: 0.0126 µM; for `O=C(NCc1cc[nH]n1)C1CCc2c(sc3ncnc(Nc4ccc5[nH]ncc5c4)c23)C1` (racemic) [Example 139, (RS)-4-(1H-indazol-5-ylamino)-N-(1H-pyrazol-3-ylmethyl)-5,6,7,8-tetrahydro[1]benzothieno[2,3-d]pyrimidine-7-carboxamide]: 0.0069 µM.
Take `Cn1ccc(NC(=O)C2CCc3c(sc4ncnc(Nc5ccc6[nH]ncc6c5)c34)C2)n1` (racemic) [Example 140, (RS)-4-(1H-indazol-5-ylamino)-N-(1-methyl-1H-pyrazol-3-yl)-5,6,7,8-tetrahydro[1]benzothieno[2,3-d]pyrimidine-7-carboxamide]: the IC50 was 0.0124 µM.
As for `N#Cc1ccc(N2CCN(C(=O)C3CCc4c(sc5ncnc(Nc6ccc7[nH]ncc7c6)c45)C3)CC2)cc1` (racemic) [Example 141, (RS)-4-(4-{[4-(1H-indazol-5-ylamino)-5,6,7,8-tetrahydro[1]benzothieno[2,3-d]pyrimidin-7-yl]carbonyl}piperazin-1-yl)benzonitrile], the IC50 was determined as 0.0174 µM.
Next, `O=C(C1CCc2c(sc3ncnc(Nc4ccc5[nH]ncc5c4)c23)C1)N1CCN(Cc2ccncc2)CC1` (racemic) [Example 142, (RS)-[4-(1H-indazol-5-ylamino)-5,6,7,8-tetrahydro[1]benzothieno[2,3-d]pyrimidin-7-yl][4-(pyridin-4-ylmethyl)piperazin-1-yl]methanone]: 0.0224 µM; `CN(C)C(=O)CN1CCN(C(=O)C2CCc3c(sc4ncnc(Nc5ccc6[nH]ncc6c5)c34)C2)CC1` (racemic) [Example 143, (RS)-2-(4-{[4-(1H-indazol-5-ylamino)-5,6,7,8-tetrahydro[1]benzothieno[2,3-d]pyrimidin-7-yl]carbonyl}piperazin-1-yl)-N,N-dimethylacetamide]: 0.0195 µM; `CN1CCN(CCNC(=O)C2CCc3c(sc4ncnc(Nc5ccc6[nH]ncc6c5)c34)C2)CC1` (racemic) [Example 144, (RS)-4-(1H-indazol-5-ylamino)-N-[2-(4-methylpiperazin-1-yl)ethyl]-5,6,7,8-tetrahydro[1]benzothieno[2,3-d]pyrimidine-7-carboxamide]: 0.0217 µM.
For `CN(Cc1cccc(F)c1)C(=O)C1CCc2c(sc3ncnc(Nc4ccc5[nH]ncc5c4)c23)C1` (racemic) [Example 145, (RS)-N-(3-fluorobenzyl)-4-(1H-indazol-5-ylamino)-N-methyl-5,6,7,8-tetrahydro[1]benzothieno[2,3-d]pyrimidine-7-carboxamide], the IC50 is 0.0049 µM.
Turning to `Cn1cc(NC(=O)C2CCc3c(sc4ncnc(Nc5ccc6[nH]ncc6c5)c34)C2)cn1` (racemic) [Example 146, (RS)-4-(1H-indazol-5-ylamino)-N-(1-methyl-1H-pyrazol-4-yl)-5,6,7,8-tetrahydro[1]benzothieno[2,3-d]pyrimidine-7-carboxamide], the half-inhibitory concentration (IC50) came to 0.0264 µM.
For the molecule `O=C(NC1(c2ccccc2)CC1)C1CCc2c(sc3ncnc(Nc4ccc5[nH]ncc5c4)c23)C1` (racemic) [Example 147, (RS)-4-(1H-indazol-5-ylamino)-N-(1-phenylcyclopropyl)-5,6,7,8-tetrahydro[1]benzothieno[2,3-d]pyrimidine-7-carboxamide], the half-maximal inhibitory concentration (IC50) was determined as 0.0037 µM.
Consider `Cc1cnc(CNC(=O)C2CCc3c(sc4ncnc(Nc5ccc6[nH]ncc6c5)c34)C2)cn1` (racemic) [Example 148, (RS)-4-(1H-indazol-5-ylamino)-N-[(5-methylpyrazin-2-yl)methyl]-5,6,7,8-tetrahydro[1]benzothieno[2,3-d]pyrimidine-7-carboxamide], for which the IC50 is 0.0081 µM.
Take `O=C(Nc1cccnn1)C1CCc2c(sc3ncnc(Nc4ccc5[nH]ncc5c4)c23)C1` (racemic) [Example 149, (RS)-4-(1H-indazol-5-ylamino)-N-(pyridazin-3-yl)-5,6,7,8-tetrahydro[1]benzothieno[2,3-d]pyrimidine-7-carboxamide]: the IC50 is 0.0274 µM.
Consider `O=C(Nc1cncnc1)C1CCc2c(sc3ncnc(Nc4ccc5[nH]ncc5c4)c23)C1` (racemic) [Example 150, (RS)-4-(1H-indazol-5-ylamino)-N-(pyrimidin-5-yl)-5,6,7,8-tetrahydro[1]benzothieno[2,3-d]pyrimidine-7-carboxamide], for which the IC50 is 0.0312 µM.
